Assays:
[1] = target: T1, Muscarinic acetylcholine receptor M1 (Homo sapiens, UniProt P11229)
T1 sequence (P11229 whole entry): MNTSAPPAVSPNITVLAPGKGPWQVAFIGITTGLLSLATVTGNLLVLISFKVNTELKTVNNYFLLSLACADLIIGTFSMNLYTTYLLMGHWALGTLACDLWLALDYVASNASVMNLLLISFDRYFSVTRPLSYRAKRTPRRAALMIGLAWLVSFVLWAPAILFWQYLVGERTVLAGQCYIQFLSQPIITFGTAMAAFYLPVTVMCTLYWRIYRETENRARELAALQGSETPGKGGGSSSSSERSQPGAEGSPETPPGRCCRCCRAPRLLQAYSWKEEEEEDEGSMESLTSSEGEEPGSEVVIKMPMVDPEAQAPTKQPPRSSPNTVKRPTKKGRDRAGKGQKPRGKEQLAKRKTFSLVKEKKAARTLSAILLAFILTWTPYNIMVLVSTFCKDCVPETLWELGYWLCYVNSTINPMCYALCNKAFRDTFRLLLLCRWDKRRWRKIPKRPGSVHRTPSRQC

Bile acid receptor = target: T2, Bile acid receptor (Homo sapiens, UniProt Q96RI1); type: functional
T2 sequence (Q96RI1 whole entry): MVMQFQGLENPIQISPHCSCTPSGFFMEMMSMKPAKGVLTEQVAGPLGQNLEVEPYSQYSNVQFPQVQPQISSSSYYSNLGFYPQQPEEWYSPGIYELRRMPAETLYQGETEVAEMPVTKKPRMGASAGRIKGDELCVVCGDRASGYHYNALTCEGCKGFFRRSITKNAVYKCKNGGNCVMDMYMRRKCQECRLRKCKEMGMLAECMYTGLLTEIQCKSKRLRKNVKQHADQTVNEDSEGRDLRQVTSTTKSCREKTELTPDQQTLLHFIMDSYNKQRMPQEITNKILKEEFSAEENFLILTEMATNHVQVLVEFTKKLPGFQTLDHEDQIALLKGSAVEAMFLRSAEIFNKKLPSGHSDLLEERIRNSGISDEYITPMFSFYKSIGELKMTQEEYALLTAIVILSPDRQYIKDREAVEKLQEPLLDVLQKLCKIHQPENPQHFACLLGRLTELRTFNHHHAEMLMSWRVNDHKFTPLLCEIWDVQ

[2] = target: T3, Peroxisome proliferator-activated receptor alpha (Homo sapiens, UniProt Q07869); type: functional
T3 sequence (Q07869 whole entry): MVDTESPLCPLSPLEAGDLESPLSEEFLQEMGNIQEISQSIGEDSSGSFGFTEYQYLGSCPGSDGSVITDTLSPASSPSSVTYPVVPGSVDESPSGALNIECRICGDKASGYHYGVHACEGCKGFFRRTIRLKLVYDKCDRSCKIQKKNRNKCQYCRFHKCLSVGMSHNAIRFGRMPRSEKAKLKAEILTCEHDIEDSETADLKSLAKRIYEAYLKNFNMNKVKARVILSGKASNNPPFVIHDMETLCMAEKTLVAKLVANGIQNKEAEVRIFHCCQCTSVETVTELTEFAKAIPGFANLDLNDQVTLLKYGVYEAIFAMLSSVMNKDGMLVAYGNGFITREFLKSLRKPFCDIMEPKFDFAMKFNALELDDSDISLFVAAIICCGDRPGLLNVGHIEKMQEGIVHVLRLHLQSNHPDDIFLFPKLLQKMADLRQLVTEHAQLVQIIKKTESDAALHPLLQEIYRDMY

[3] = target: T4, Retinoic acid receptor alpha (Homo sapiens, UniProt P10276); type: functional, cell-based
T4 sequence (P10276 whole entry): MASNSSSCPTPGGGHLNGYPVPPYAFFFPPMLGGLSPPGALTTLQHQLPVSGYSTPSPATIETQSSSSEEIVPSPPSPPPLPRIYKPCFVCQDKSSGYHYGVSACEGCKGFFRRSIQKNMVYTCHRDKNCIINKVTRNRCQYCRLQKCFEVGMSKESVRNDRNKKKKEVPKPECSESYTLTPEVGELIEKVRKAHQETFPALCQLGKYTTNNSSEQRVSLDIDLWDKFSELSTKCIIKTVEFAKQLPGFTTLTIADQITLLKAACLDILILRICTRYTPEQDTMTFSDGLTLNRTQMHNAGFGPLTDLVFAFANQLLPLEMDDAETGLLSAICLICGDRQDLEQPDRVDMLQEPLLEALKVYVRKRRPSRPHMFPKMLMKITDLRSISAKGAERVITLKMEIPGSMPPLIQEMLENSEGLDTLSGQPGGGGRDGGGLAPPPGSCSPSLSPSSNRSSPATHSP

[4] = target: T4, Retinoic acid receptor alpha; type: functional, cell-based; remark: listed apart in the source
[5] = target: T5, Muscarinic acetylcholine receptor M4 (Homo sapiens, UniProt P08173)
T5 sequence (P08173 whole entry): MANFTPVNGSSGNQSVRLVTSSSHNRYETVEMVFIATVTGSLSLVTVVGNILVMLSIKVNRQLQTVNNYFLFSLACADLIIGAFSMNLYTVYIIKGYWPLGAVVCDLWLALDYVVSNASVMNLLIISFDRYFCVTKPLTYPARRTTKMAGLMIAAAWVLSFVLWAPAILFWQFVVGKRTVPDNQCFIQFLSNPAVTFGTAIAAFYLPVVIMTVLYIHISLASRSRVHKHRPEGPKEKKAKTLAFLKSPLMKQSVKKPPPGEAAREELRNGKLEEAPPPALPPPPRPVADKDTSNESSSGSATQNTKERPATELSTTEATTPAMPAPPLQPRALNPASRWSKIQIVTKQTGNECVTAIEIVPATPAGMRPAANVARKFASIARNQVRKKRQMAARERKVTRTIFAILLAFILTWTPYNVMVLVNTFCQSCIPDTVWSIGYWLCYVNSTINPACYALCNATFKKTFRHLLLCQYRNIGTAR

Substance-K receptor = target: T6, Substance-K receptor (Homo sapiens, UniProt P21452)
T6 sequence (P21452 whole entry): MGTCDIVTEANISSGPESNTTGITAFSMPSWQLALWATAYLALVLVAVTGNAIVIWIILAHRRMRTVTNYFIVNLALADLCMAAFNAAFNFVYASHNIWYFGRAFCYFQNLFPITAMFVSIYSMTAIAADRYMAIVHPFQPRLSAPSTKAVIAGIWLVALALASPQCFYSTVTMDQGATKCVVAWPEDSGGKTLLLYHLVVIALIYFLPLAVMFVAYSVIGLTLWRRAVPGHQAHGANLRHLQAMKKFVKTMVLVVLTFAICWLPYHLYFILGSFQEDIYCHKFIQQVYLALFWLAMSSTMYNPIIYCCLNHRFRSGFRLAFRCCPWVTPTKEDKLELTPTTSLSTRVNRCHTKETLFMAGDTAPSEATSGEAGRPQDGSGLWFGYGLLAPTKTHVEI

[6] = target: 5-hydroxytryptamine receptor 2B (Homo sapiens, UniProt P41595)
5-hydroxytryptamine receptor 2B, sequence (P41595 whole entry): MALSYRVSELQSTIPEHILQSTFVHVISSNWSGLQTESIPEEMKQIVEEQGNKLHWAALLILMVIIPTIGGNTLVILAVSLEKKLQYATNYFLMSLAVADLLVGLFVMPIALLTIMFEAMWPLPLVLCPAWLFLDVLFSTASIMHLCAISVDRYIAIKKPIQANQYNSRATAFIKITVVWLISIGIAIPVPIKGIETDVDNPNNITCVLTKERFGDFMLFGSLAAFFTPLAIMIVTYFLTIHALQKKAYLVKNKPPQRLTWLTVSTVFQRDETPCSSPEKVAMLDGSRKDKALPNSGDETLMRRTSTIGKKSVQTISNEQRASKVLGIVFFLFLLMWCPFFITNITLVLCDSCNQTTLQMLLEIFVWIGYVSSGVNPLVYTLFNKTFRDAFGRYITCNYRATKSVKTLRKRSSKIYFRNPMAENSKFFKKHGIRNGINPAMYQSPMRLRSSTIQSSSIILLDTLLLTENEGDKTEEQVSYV

Histamine H1 receptor = Histamine H1 receptor (Homo sapiens, UniProt P35367); type: functional, cell-based
Histamine H1 receptor, sequence (P35367 whole entry): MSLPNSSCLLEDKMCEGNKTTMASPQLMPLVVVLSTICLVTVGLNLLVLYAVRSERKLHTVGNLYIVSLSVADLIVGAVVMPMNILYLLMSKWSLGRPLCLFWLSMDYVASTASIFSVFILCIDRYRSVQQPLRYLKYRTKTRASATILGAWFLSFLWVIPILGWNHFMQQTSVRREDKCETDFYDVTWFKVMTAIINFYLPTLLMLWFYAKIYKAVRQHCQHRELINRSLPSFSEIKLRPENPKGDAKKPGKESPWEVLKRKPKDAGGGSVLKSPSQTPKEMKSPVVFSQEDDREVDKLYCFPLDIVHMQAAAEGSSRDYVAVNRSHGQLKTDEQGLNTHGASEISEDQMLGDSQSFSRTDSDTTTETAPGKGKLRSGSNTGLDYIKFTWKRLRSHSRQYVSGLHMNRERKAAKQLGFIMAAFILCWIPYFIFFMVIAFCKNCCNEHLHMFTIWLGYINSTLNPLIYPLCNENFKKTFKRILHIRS
Note: assay procedure not described here.

**Q.** `O=C(Nc1cccc2c(=O)cc(-c3nnn[nH]3)oc12)c1ccc(OCCCCc2ccccc2)cc1` was tested. Which AC50 [1] did it give?
**A.** 28 µM

**Q.** What does the source list for `CC(/C=C1\SC(=S)N(CC(=O)O)C1=O)=C\c1ccccc1`?
**A.** AC50 (Bile acid receptor): > 30 µM; AC50 [2]: > 30 µM; AC50 [3]: > 30 µM; AC50 [4]: > 30 µM

**Q.** `CC1(C)S[C@@H]2[C@H](NC(=O)[C@H](N)c3ccc(O)cc3)C(=O)N2[C@H]1C(=O)O` [AMOXICILLIN] was tested. Which AC50 [5] did it give?
**A.** > 10 µM

**Q.** And the AC50 (Bile acid receptor)?
**A.** > 30 µM

**Q.** What about the AC50 [2] of the same compound?
**A.** > 30 µM

**Q.** And the AC50 [3]?
**A.** > 30 µM

**Q.** What about the AC50 [4] of the same compound?
**A.** > 30 µM

**Q.** And the AC50 (Substance-K receptor)?
**A.** > 10 µM

**Q.** `COC(=O)[C@H](c1ccccc1Cl)N1CCc2sccc2C1` [CLOPIDOGREL] was tested. Which AC50 [5] did it give?
**A.** > 10 µM

**Q.** What about the AC50 (Substance-K receptor) of the same compound?
**A.** > 10 µM

**Q.** `CN1C[C@H](C(=O)N[C@]2(C)O[C@@]3(O)[C@@H]4CCCN4C(=O)[C@H](Cc4ccccc4)N3C2=O)C[C@@H]2c3cccc4[nH]cc(c34)C[C@H]21` [DIHYDROERGOTAMINE] was tested. Which AC50 [6] did it give?
**A.** 0.0444 µM

**Q.** Which AC50 [1] does the source give for `CCC(=O)O[C@@H](O[P@](=O)(CCCCc1ccccc1)CC(=O)N1C[C@H](C2CCCCC2)C[C@H]1C(=O)O)C(C)C` [FOSINOPRIL] here?
**A.** > 30 µM

**Q.** What does the source list for `Cc1cnc(NC(=O)C2=C(O)c3ccccc3S(=O)(=O)N2C)s1` [MELOXICAM]?
**A.** AC50 [5]: > 10 µM; AC50 (Substance-K receptor): > 10 µM

**Q.** Which AC50 [6] does the source give for `CC[C@@H](CO)NC(=O)[C@@H]1C=C2c3cccc4[nH]cc(c34)C[C@H]2N(C)C1` [METHYLERGONOVINE] here?
**A.** 0.0054 µM

**Q.** For `CN(C)c1cc(CNCC(C)(C)C)c(O)c2c1C[C@H]1C[C@H]3[C@H](N(C)C)C(O)=C(C(N)=O)C(=O)[C@@]3(O)C(O)=C1C2=O` [OMADACYCLINE], which AC50 [1] is on record?
**A.** > 30 µM

**Q.** And the AC50 [5]?
**A.** > 30 µM

**Q.** And the AC50 (Histamine H1 receptor)?
**A.** > 30 µM

**Q.** Which AC50 (Histamine H1 receptor) does the source give for `CC(C)C[C@H](CN)CC(=O)O` [PREGABALIN] here?
**A.** > 30 µM

**Q.** For `CNC(=O)c1cc(Oc2ccc(NC(=O)Nc3ccc(Cl)c(C(F)(F)F)c3)c(F)c2)ccn1` [REGORAFENIB], which AC50 [1] is on record?
**A.** 2.37 µM

**Q.** What about the AC50 (Bile acid receptor) of the same compound?
**A.** 7.2 µM

**Q.** What about the AC50 [2] of the same compound?
**A.** > 30 µM

**Q.** What about the AC50 [3] of the same compound?
**A.** > 30 µM

**Q.** What about the AC50 [4] of the same compound?
**A.** > 30 µM

**Q.** For `CCOc1cc(CC(=O)N[C@@H](CC(C)C)c2ccccc2N2CCCCC2)ccc1C(=O)O` [REPAGLINIDE], which AC50 (Bile acid receptor) is on record?
**A.** 6.5 µM

**Q.** And the AC50 [2]?
**A.** > 30 µM

**Q.** And the AC50 [3]?
**A.** > 30 µM

**Q.** And the AC50 [4]?
**A.** > 30 µM

**Q.** `CCCN(CCC)CCc1cccc2c1CC(=O)N2` [ROPINIROLE] was tested. Which AC50 [6] did it give?
**A.** 13.4 µM

**Q.** Which results are given for `CCCCNc1ccc(C(=O)OCCN(C)C)cc1` [TETRACAINE]?
**A.** AC50 [5]: > 10 µM; AC50 (Substance-K receptor): > 10 µM

**Q.** For `CN1CCN(CCCN2c3ccccc3Sc3ccc(S(=O)(=O)N(C)C)cc32)CC1` [THIOPROPERAZINE], which AC50 [1] is on record?
**A.** 3.24 µM

Source: ChEMBL document CHEMBL5291721, “A preclinical secondary pharmacology resource illuminates target-adverse drug reaction associations of marketed drugs” (Nat Commun, 2023)
